Assay results from patent US8093265B2, “Bicycloheteroaryl compounds as P2X7 modulators and uses thereof” (Renovis, Inc., priority 2007, dated 2012).

These compounds were tested against T1, P2X7 receptor (Homo sapiens, UniProt Q99572) (assay: IL-1β release assay in differentiated THP-1 cells (Example 9)). Conditions: THP-1 cells differentiated with LPS and IFN-γ; 30 min pretreatment; BzATP 250 uM; IL-1β by ELISA.
T1 construct: host or cells: THP-1 cells differentiated with LPS and IFN-γ
T1 sequence (Q99572 1-595): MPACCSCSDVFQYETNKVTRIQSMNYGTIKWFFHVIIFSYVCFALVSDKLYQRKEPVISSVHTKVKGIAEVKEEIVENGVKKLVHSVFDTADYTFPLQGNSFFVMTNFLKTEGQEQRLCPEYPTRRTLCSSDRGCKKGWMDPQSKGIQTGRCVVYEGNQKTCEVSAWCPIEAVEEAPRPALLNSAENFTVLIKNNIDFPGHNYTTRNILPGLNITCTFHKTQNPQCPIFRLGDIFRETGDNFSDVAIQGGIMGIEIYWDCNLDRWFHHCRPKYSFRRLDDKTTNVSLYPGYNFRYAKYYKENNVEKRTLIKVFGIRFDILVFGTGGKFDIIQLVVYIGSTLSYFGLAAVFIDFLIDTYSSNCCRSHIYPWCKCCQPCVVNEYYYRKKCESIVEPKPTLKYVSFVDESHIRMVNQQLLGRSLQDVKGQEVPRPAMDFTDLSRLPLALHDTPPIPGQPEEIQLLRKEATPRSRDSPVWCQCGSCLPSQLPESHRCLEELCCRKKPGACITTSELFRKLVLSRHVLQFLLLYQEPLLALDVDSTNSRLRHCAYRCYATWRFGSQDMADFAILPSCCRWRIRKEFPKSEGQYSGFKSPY
Assay type: cell-based
Method: THP-1 cells (ATCC Cat #285-IF-100) are plated in 96 well plates at a concentration of 200,000 cells per well and allowed to differentiate in RPMI-1640 media (ATCC Cat #30-2001) containing 10% FBS, 100 IU/mL penicillin, 100 ug/mL streptomycin, 100 ng/mL LPS and 100 ng/mL IFN-γ for 16 hours. Following differentiation, the cells are treated for an additional 2 hours in RPMI-1640 media containing 100 IU/mL penicillin, 100 ug/mL streptomycin and fresh LPS at 100 ng/mL. The cells are then pretreated for 30 minutes with the compound of interest at the appropriate concentration in RPMI media containing 100 IU/mL penicillin, 100 ug/mL streptomycin. Following the pretreatment 2′,3′-O-(4-benzoylbenzoyl)-adenosine 5′-triphosphate (Sigma Aldrich Cat # B6396) is added to a final concentration of 250 uM, and the cells are incubated for an additional 45 minutes. 30 uL of cell supernatant is then collected and IL-1β levels are determined via ELISA (R&D systems Cat. # HSLB50) according to manufacturer's recommendations using a Tecan Safire plate reader. Background adjusted IL-1β levels of drug treated and non-treated cells are used to calculate the percent inhibition.
The following compounds have been or can be prepared according to the synthetic methods described herein for example, methods A-AA1. The compounds set forth in Table 1 were tested for activity in a cellular model as described herein. Specifically, cells were pretreated with differing amounts of the compound under test and released IL-1β determined as in Example 9, above. Measurements were made and IC50 values, presented in Table 1, below, were determined by fitting the data to a four parameter logistic equation using GraphPad Prism software (GraphPad Software, Inc). The equation may be expressed by the following formula: Y=Bottom+(Top−Bottom)/(1+10^((Log EC50−X)*HillSlope)) where X is the logarithm of concentration, Y is the response and Y starts at Bottom and goes to Top with a sigmoid shape.

Row | IC50 | SMILES
1 | 0.042 µM | Cc1ccc2c(=O)n([C@H](C)CO)ccc2c1NC(=O)CC1(O)CCCCCC1 [Compound 37, 2-(1-Hydroxy-cycloheptyl)-N-[2-((R)-2-hydroxy-1-methyl-ethyl)-6-methyl-1-oxo-1,2-dihydroisoquinolin-5-yl]-acetamide]
2 | 0.043 µM | CNCCn1ccc2c(NC(=O)Cc3ccc(C(F)(F)F)c(F)c3)c(C)ccc2c1=O [Compound 38, 2-(3-Fluoro-4-trifluoromethyl-phenyl)-1-[6-methyl-2-(2-methylamino-ethyl)-1-oxo-1,2-dihydroisoquinolin-5-yl]-acetamide]
3 | 0.001 µM | C[C@H](CO)n1ccc2c(NC(=O)Cc3cccc(C(F)(F)F)c3)c(Cl)ccc2c1=O [Compound 39, N-[6-Chloro-2-((R)-2-hydroxy-1-methyl-ethyl)-1-oxo-1,2-dihydro-isoquinolin-5-yl]-2-(3-trifluoromethyl-phenyl)-acetamide]
4 | 0.31 µM | C[C@H](CO)n1ccc2c(C(=O)NCc3ccc(C(F)(F)F)nc3)c(Cl)ccc2c1=O [Compound 43, 6-Chloro-2-((R)-2-hydroxy-1-methyl-ethyl)-1-oxo-1,2-dihydro-isoquinoline-5-carboxylic acid (6-trifluoromethyl-pyridin-3-ylmethyl)-amide]
5 | 0.5 µM | C[C@H](CO)n1ccc2c(C(=O)NCc3ccccc3C(F)(F)F)c(Cl)ccc2c1=O [Compound 46, 6-Chloro-2-((R)-2-hydroxy-1-methyl-ethyl)-1-oxo-1,2-dihydro-isoquinoline-5-carboxylic acid 2-trifluoromethyl-benzylamide]
6 | 0.0002 µM | C[C@H](CO)n1ccc2c(C(=O)NCC3CCCCCC3)c(Cl)ccc2c1=O [Compound 48, 6-Chloro-2-((R)-2-hydroxy-1-methyl-ethyl)-1-oxo-1,2-dihydro-isoquinoline-5-carboxylic acid cycloheptylmethyl-amide]
7 | 0.003 µM | Cc1ccc2c(=O)n([C@H](C)CO)ccc2c1C(=O)NCc1ccc(Cl)c(F)c1 [Compound 50, 2-((R)-2-Hydroxy-1-methyl-ethyl)-6-methyl-1-oxo-1,2-dihydro-isoquinoline-5-carboxylic acid 4-chloro-3-fluoro-benzylamide]
8 | 0.004 µM | Cc1ccc2c(=O)n([C@H](C)CO)ccc2c1C(=O)NCC1(O)CCCCCC1 [Compound 52, 2-((R)-2-Hydroxy-1-methyl-ethyl)-6-methyl-1-oxo-1,2-dihydro-isoquinoline-5-carboxylic acid (1-hydroxy-cycloheptylmethyl)-amide]

More lines, now with the values behind:

Row | SMILES | IC50
9 | C[C@H](C(=O)Nc1c(Cl)ccc2c(=O)n([C@H](C)C(N)=O)ccc12)c1ccc(Cl)cc1 [Compound 4, (R)-2-{6-Chloro-5-[(S)-2-(4-chloro-phenyl)-propionylamino]-1-oxo-1H-isoquinolin-2-yl}-propionamide] | 0.018 µM
10 | COc1ccc2c(=O)n([C@H](C)C(N)=O)ccc2c1NC(=O)Cc1ccc(C(F)(F)F)cc1 [Compound 7, (R)-2-{6-Methoxy-1-oxo-5-[2-(4-trifluoromethyl-phenyl)-acetylamino]-1H-isoquinolin-2-yl}-propionamide] | 0.048 µM
11 | C[C@@H](C(N)=O)n1ccc2c(NC(=O)Cc3ccc(C(F)(F)F)cc3)c(Cl)ccc2c1=O [Compound 8, (S)-2-{6-Chloro-1-oxo-5-[2-(4-trifluoromethyl-phenyl)-acetylamino]-1H-isoquinolin-2-yl}-propionamide] | 0.113 µM
12 | COc1ccc2c(=O)n([C@H](C)CO)ccc2c1NC(=O)Cc1ccc(C(F)(F)F)c(F)c1 [Compound 9, 2-(3-Fluoro-4-trifluoromethyl-phenyl)-N-[2-((R)-2-hydroxy-1-methyl-ethyl)-6-methoxy-1-oxo-1,2-dihydro-isoquinolin-5-yl]-acetamide] | 0.439 µM
13 | C[C@H](CO)n1ccc2c(NC(=O)Cc3ccc(Cl)c(Cl)c3)c(Cl)ccc2c1=O [Compound 12, N-[6-Chloro-2-((R)-2-hydroxy-1-methyl-ethyl)-1-oxo-1,2-dihydro-isoquinolin-5-yl]-2-(3,4-dichloro-phenyl)-acetamide] | 0.013 µM
14 | C[C@H](CO)n1ccc2c(NC(=O)Cc3ccc(C(F)(F)F)cc3F)c(Cl)ccc2c1=O [Compound 14, N-[6-Chloro-2-((R)-2-hydroxy-1-methyl-ethyl)-1-oxo-1,2-dihydro-isoquinolin-5-yl]-2-(2-fluoro-4-trifluoromethyl-phenyl)-acetamide] | 0.031 µM
15 | C[C@H](CO)n1ccc2c(NC(=O)Cc3ccc(C(F)(F)F)c(F)c3)c(C3CC3)ccc2c1=O [Compound 17, N-[6-Cyclopropyl-2-((R)-2-hydroxy-1-methyl-ethyl)-1-oxo-1,2-dihydro-isoquinolin-5-yl]-2-(3-fluoro-4-trifluoromethyl-phenyl)-acetamide] | 0.009 µM
16 | O=C(Cc1cccc(C(F)(F)F)c1F)Nc1c(NCCO)ccc2c(=O)n(CCO)ccc12 [Compound 18, 2-(2-Fluoro-3-trifluoromethyl-phenyl)-N-[2-(2-hydroxy-ethyl)-6-(2-hydroxy-ethylamino)-1-oxo-1,2-dihydro-isoquinolin-5-yl]-acetamide] | 1.67 µM
17 | O=C(Cc1cccc(C(F)(F)F)c1F)Nc1c(Cl)ccc2c(=O)n(CCO)ccc12 [Compound 20, N-[6-Chloro-2-(2-hydroxy-ethyl)-1-oxo-1,2-dihydro-isoquinolin-5-yl]-2-(2-fluoro-3-trifluoromethyl-phenyl)-acetamide] | 0.063 µM
18 | Cc1ccc2c(=O)n(CCO)ccc2c1NC(=O)Cc1cccc(C(F)(F)F)c1F [Compound 24, 2-(2-Fluoro-3-trifluoromethyl-phenyl)-N-[2-(2-hydroxy-ethyl)-6-methyl-1-oxo-1,2-dihydro-isoquinolin-5-yl]-acetamide] | 0.065 µM
19 | Cc1ccc2c(=O)n(CCO)ccc2c1NC(=O)Cc1ccc(F)c(C(F)(F)F)c1 [Compound 27, 2-(4-Fluoro-3-trifluoromethyl-phenyl)-N-[2-(2-hydroxy-ethyl)-6-methyl-1-oxo-1,2-dihydro-isoquinolin-5-yl]-acetamide] | 0.007 µM
20 | Cc1ccc2c(=O)n([C@H](C)CO)ccc2c1NC(=O)CC12CC3CC(CC(C3)C1)C2 [Compound 31, 2-Adamantan-1-yl-N-[2-((R)-2-hydroxy-1-methyl-ethyl)-6-methyl-1-oxo-1,2-dihydro-isoquinolin-5-yl]-acetamide] | 0.005 µM
21 | Cc1ccc2c(=O)n([C@H](C)CO)ccc2c1NC(=O)CC1CCCCCC1 [Compound 32, 2-Cycloheptyl-N-[2-((R)-2-hydroxy-1-methyl-ethyl)-6-methyl-1-oxo-1,2-dihydro-isoquinolin-5-yl]-acetamide] | 0.009 µM
22 | Cc1ccc2c(=O)n([C@@H](C)CO)ccc2c1NC(=O)Cc1ccc(C(F)(F)F)c(F)c1 [Compound 33, (S)-2-(3-fluoro-4-(trifluoromethyl)phenyl)-N-(2-(1-hydroxypropan-2-yl)-6-methyl-1-oxo-1,2-dihydroisoquinolin-5-yl)acetamide] | 0.053 µM
23 | C[C@@H](CO)n1ccc2c(NC(=O)Cc3ccc(C(F)(F)F)c(F)c3)c(Cl)ccc2c1=O [Compound 34, N-[6-Chloro-2-((S)-2-hydroxy-1-methyl-ethyl)-1-oxo-1,2-dihydro-isoquinolin-5-yl]-2-(3-fluoro-4-trifluoromethyl-phenyl)-acetamide] | 0.023 µM
24 | Cc1ccc2c(=O)n([C@H](C)CO)ccc2c1NC(=O)Cc1cccc(C(F)(F)F)c1 [Compound 35, N-[2-((R)-2-Hydroxy-1-methyl-ethyl)-6-methyl-1-oxo-1,2-dihydro-isoquinolin-5-yl]-2-(3-trifluoromethyl-phenyl)-acetamide] | 0.002 µM
25 | C[C@H](CO)n1ccc2c(NC(=O)CC3CCCCCC3)c(Cl)ccc2c1=O [Compound 36, N-[6-Chloro-2-((R)-2-hydroxy-1-methyl-ethyl)-1-oxo-1,2-dihydro-isoquinolin-5-yl]-2-cycloheptyl-acetamide] | 0.004 µM
